Values quoted from earlier work, collected in US20060210492A1 (priority 2005, published 2006).

## CO[C@H]1/C=C/O[C@@]2(C)Oc3c(C)c(O)c4c(O)c(c5c(nc6cc(C)ccn65)c4c3C2=O)NC(=O)/C(C)=C\C=C\[C@H](C)[C@H](O)[C@@H](C)[C@@H](O)[C@@H](C)[C@H](OC(C)=O)[C@@H]1C [rifaximin, (2S,16Z,18E,20S,21S,22R,23R,24R,25S,26S,27S,28E)-5,6,21,23,25-pentahydroxy-27-methoxy-2,4,11,16,20,22,24,26-octamethyl-2,7-(epoxypentadeca-[1,11,13]trienimino)benzofuro[4,5-e]pyrido[1,2-a]-benzimidazole-1,15(2H)-dione,25-acetate]
  solubility in water: practically insoluble
